In assay [1] the target is T1, Heparanase (Mus musculus, UniProt Q6YGZ1).
T1 sequence (Q6YGZ1 whole entry): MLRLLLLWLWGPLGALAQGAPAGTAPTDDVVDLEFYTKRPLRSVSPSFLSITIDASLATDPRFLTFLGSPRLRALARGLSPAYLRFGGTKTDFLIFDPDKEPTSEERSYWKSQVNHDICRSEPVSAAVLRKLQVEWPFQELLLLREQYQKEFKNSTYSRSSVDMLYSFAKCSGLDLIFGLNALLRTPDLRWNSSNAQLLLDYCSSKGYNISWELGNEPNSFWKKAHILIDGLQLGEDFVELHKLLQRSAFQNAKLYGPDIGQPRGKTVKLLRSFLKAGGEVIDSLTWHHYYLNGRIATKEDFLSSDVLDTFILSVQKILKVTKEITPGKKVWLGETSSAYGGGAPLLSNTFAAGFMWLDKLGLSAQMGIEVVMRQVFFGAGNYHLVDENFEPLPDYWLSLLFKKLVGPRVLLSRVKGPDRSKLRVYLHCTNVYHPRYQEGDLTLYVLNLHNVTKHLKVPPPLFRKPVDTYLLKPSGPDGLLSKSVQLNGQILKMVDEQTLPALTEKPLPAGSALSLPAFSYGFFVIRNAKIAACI
As to the kind of experiment: Inhibition of mouse B16-BL6 cells derived heparanase using [3H]HS as substrate after 6 hrs by size exclusion chromatography based liquid scintillation counting method. (In general: SEC sorts molecules by how far they enter the pores of the column.)

The subject of assay [2] is HT-1080. In words: Growth inhibition of human HT1080 cells at 2.5 uM after 72 hrs by SRB assay relative to control. The class given is functional. The conditions noted are these: HT-1080, 72 h, read-out: GI. On the technique in general: The SRB assay estimates cell density from bound dye.
The test system of assay [3] is U-87 MG. In words: Growth inhibition of human U87MG cells at 2.5 uM after 72 hrs by SRB assay relative to control. The class given is functional, U-87MG ATCC. The conditions noted are these: read-out: GI.
Assay [4] relates to U2OS. In words: Growth inhibition of human U2OS cells at 2.5 uM after 72 hrs by SRB assay relative to control. The class given is functional. Particulars: read-out: GI.
Assay [5] deals with HT-1080. In words: Effect on growth factor mRNA expression in human HT1080 cells assessed as FGF1 mRNA level at 2.5 uM after 24 hrs by qPCR method (reference value: 100%). Type of assay: functional.
Assay [6] deals with HT-1080. In words: Effect on growth factor mRNA expression in human HT1080 cells assessed as FGF2 mRNA level at 2.5 uM after 24 hrs by qPCR method (reference value: 100%). Type of assay: functional. In general terms: In qPCR the cycle at which signal appears reflects the starting amount.
Assay [7] concerns HT-1080. In words: Effect on growth factor mRNA expression in human HT1080 cells assessed as VEGF mRNA level at 2.5 uM after 24 hrs by qPCR method (reference value: 100%). The class given is functional.
For assay [8], the system named is HT-1080. In words: Effect on MMP9 mRNA expression in human HT1080 cells assessed as MMP9 mRNA level at 2.5 uM after 24 hrs by qPCR method (reference value: 100%). The class given is functional.
For assay [9], the system named is HT-1080. In words: Effect on HPSE1 mRNA expression in human HT1080 cells assessed as HPSE1 mRNA level at 2.5 uM after 24 hrs by qPCR method (reference value: 100%). The class given is functional.
Assay [10] deals with HT-1080. As to the kind of experiment: Anti-invasive activity against human HT1080 cells at 2.5 uM incubated for 24 hrs measured for 24 hrs by crystal violet staining based inverted microscopic method relative to control. The class given is functional.
Assay [11] deals with HT-1080. Particulars: Homo sapiens, 2.5 uM.
Description: Inhibition of cell adhesion in human HT1080 cells at 2.5 uM incubated for 18 to 20 hrs by crystal violet staining based assay

Nine compounds from ChEMBL document CHEMBL4177565, “Arylamidonaphtalene sulfonate compounds as a novel class of heparanase inhibitors” (Bioorg Med Chem Lett, 2017) can be followed below.

Molecules are shown by their SMILES. Active and inactive are the calls of the source. The calls are words filed in the database; no cut-off is given here.

For the compound `Cc1ccc(C(=O)Nc2ccc(S(=O)(=O)O)c3cc(S(=O)(=O)O)cc(S(=O)(=O)O)c23)cc1NC(=O)c1cccc(NC(=O)Nc2cccc(C(=O)Nc3cc(C(=O)Nc4ccc(S(=O)(=O)O)c5cc(S(=O)(=O)O)cc(S(=O)(=O)O)c45)ccc3C)c2)c1` [SURAMIN], the Ki (commonly the dissociation constant of the complex between target and ligand, obtained from inhibition or displacement) in [1] is 48 µM.
With `Cc1ccc(C(=O)Nc2ccc3c(S(=O)(=O)O)cccc3c2S(=O)(=O)O)cc1NC(=O)c1cc(NC(=O)Nc2cc(C(=O)Nc3cc(C(=O)Nc4ccc5c(S(=O)(=O)O)cccc5c4S(=O)(=O)O)ccc3C)n(C)c2)cn1C`, the inhibition of growth at 2.5 µM in assay [2], in [3] and in assay [4] was less than 50% throughout.
In the case of `O=C(Nc1cccc(C(=O)Nc2cc(C(=O)Nc3ccc4c(S(=O)(=O)O)cccc4c3S(=O)(=O)O)n(C3CC3)c2)c1)Nc1cccc(C(=O)Nc2cc(C(=O)Nc3ccc4c(S(=O)(=O)O)cccc4c3S(=O)(=O)O)n(C3CC3)c2)c1`, the inhibition of growth at 2.5 µM in assay [2], in [3] and in assay [4] was less than 50% each time.
On to `Cn1cc(NC(=O)Nc2cc(C(=O)Nc3cc(C(=O)Nc4ccc5c(S(=O)(=O)[O-])cccc5c4S(=O)(=O)[O-])n(C)c3)n(C)c2)cc1C(=O)Nc1cc(C(=O)Nc2ccc3c(S(=O)(=O)[O-])cccc3c2S(=O)(=O)[O-])n(C)c1.[Na+].[Na+].[Na+].[Na+]`, for which the Activity in assay [5] stood at 44%; in assay [6] it was 86%; in assay [7], 100%; in assay [8], 100%; in assay [9], 1%.
In the case of `Cn1cc(NC(=O)Nc2cc(C(=O)Nc3cccc(C(=O)Nc4ccc5c(S(=O)(=O)[O-])cccc5c4S(=O)(=O)[O-])c3)n(C)c2)cc1C(=O)Nc1cccc(C(=O)Nc2ccc3c(S(=O)(=O)[O-])cccc3c2S(=O)(=O)[O-])c1.[Na+].[Na+].[Na+].[Na+]`, the inhibition of growth at 2.5 µM in assay [2], in [3] and in assay [4] was less than 50% throughout. The Activity in [10] is listed as more than 90%; in assay [5], 87%; in [6], 98%; in [7] it was 85%; in [8], 80%; in assay [9] it was 4%. Also, the inhibition entry in assay [11] was “Active”.
As to `Cn1cc(NC(=O)c2cccc(NC(=O)Nc3cccc(C(=O)Nc4cc(C(=O)Nc5ccc6c(S(=O)(=O)O)cccc6c5S(=O)(=O)O)n(C)c4)c3)c2)cc1C(=O)Nc1ccc2c(S(=O)(=O)O)cccc2c1S(=O)(=O)O`, the inhibition of growth at 2.5 µM in assay [2], in assay [3] and in assay [4] was less than 50% throughout.
On to `Cn1cc(NC(=O)c2ccc(F)c(NC(=O)Nc3cc(C(=O)Nc4cc(C(=O)Nc5ccc6c(S(=O)(=O)O)cccc6c5S(=O)(=O)O)n(C)c4)ccc3F)c2)cc1C(=O)Nc1ccc2c(S(=O)(=O)O)cccc2c1S(=O)(=O)O`, for which the inhibition of growth at 2.5 µM in assay [2], in assay [3] and in assay [4] was less than 50% in each case.
Regarding `Cn1cc(NC(=O)c2cc(NC(=O)Nc3cc(C(=O)Nc4cc(C(=O)Nc5ccc6c(S(=O)(=O)O)cccc6c5S(=O)(=O)O)n(C)c4)cc(C(F)(F)F)c3)cc(C(F)(F)F)c2)cc1C(=O)Nc1ccc2c(S(=O)(=O)O)cccc2c1S(=O)(=O)O`, the inhibition of growth at 2.5 µM in assay [2], in assay [3] and in [4] was less than 50% throughout.
Turning to `Cc1c(NC(=O)c2cccc(NC(=O)Nc3cccc(C(=O)Nc4cc(C(=O)Nc5ccc6c(S(=O)(=O)O)cccc6c5S(=O)(=O)O)n(C)c4C)c3)c2)cc(C(=O)Nc2ccc3c(S(=O)(=O)O)cccc3c2S(=O)(=O)O)n1C`, the inhibition of growth at 2.5 µM in assay [2], in assay [3] and in assay [4] was less than 50% in each case.
